14 compounds from ChEMBL document CHEMBL4819044, “Discovery of a Hydroxypyridinone APJ Receptor Agonist as a Clinical Candidate” (J Med Chem, 2021) can be followed below.

A short description of data set [1]: Metabolic stability in rat liver microsomes assessed as parent compound remaining incubated for 10 mins in presence of NADPH by triple quadrupole mass spectrometry. The data set is classed as ADME, Microsome. Conditions: read-out: Stabilty. (Liver microsomes are a subcellular fraction often used to study metabolism.)
The target in data set [2] is T1, Apelin receptor (Rattus norvegicus, UniProt Q9JHG3).
T1 sequence (Q9JHG3 whole entry): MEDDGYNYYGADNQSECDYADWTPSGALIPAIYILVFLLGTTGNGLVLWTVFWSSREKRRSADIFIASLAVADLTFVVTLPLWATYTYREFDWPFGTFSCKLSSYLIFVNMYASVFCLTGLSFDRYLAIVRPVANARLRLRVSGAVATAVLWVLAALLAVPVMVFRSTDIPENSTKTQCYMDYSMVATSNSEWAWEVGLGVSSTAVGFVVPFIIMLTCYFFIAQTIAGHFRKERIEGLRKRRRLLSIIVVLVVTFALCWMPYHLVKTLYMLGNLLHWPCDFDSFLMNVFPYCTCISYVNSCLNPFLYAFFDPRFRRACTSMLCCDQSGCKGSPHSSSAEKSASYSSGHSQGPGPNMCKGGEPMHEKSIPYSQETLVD
As to the kind of experiment: Agonist activity at rat APJ receptor expressed in human HEK293 cells assessed as inhibition of forskolin-induced cAMP accumulation incubated for 1 hr by TR-FRET assay. The data set is classed as functional, cell-based. A general note: Changes in cAMP serve as a functional read-out for many G protein-coupled receptors.

The target of data set [3] is T2, Apelin receptor (Homo sapiens, UniProt P35414).
T2 sequence (P35414 whole entry): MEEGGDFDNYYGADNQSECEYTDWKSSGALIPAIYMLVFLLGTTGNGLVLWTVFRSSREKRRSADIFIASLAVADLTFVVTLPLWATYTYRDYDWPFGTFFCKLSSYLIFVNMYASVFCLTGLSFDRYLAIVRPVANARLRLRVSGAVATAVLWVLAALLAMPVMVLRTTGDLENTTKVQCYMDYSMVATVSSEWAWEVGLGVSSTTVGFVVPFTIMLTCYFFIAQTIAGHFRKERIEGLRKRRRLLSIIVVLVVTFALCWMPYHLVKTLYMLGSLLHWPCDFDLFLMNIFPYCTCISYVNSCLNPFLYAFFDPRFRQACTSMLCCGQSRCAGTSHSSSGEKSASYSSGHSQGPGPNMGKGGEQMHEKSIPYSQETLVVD
Put plainly: Agonist activity at human APJ receptor expressed in human HEK293 cells assessed as inhibition of forskolin-induced cAMP accumulation incubated for 1 hr by TR-FRET assay. The data set is classed as functional, cell-based.

Data set [4] is described as follows: Metabolic stability in human liver microsomes assessed as parent compound remaining incubated for 10 mins in presence of NADPH by triple quadrupole mass spectrometry. The data set is classed as ADME, Microsome. As to conditions: read-out: Stabilty; call rule not given here.
The nature of data set [5]: Solubility of compound in phosphate buffer pH 7.4 using excess solid incubated for 24 hrs under agitation condition by reverse phase LC analysis. The data set is classed as physicochemical.
Data set [6] can be described thus: Stability in human liver microsomes assessed as parent compound remaining at 30 uM incubated for 45 mins. The data set is classed as ADME, Microsome. As to conditions: read-out: Stabilty.
Data set [7] has as its target T2, Apelin receptor. As to the kind of experiment: Displacement of [3H]Apelin-13 from human APJ receptor stably expressed in human HEK293 cell membrane incubated for 120 mins by TopCount scintillation plate reader analysis. The data set is classed as cell membranes. In general terms: Displacement assays read how much labelled ligand stays bound in the presence of the test substance.

A short description of data set [8]: Stability in rat liver microsomes assessed as parent compound remaining at 30 uM incubated for 45 mins. The data set is classed as ADME, Microsome. Conditions: read-out: Stabilty.
A short description of data set [9]: cells. Conditions: Canis lupus familiaris, HEK293, 1 h.
Data set [10] is described as follows: Oral bioavailability in cynomolgus monkey at 3 mg/kg measured measured up to 72 hrs by LC/MS/MS analysis. Conditions: in vivo. The data set is classed as ADME, organism-based, Macaca fascicularis.
Data set [11] in a line: Oral bioavailability in Sprague-Dawley rat at 3 mg/kg measured measured up to 48 hrs by LC/MS/MS analysis. The data set is classed as ADME, organism-based. As to conditions: in vivo.
A short description of data set [12]: Half life in Sprague-Dawley rat at 3 mg/kg, po measured up to 48 hrs by LC/MS/MS analysis. Conditions: in vivo.
The nature of data set [13]: Urinary excretion in cynomolgus monkey at 3 mg/kg, po measured measured up to 72 hrs by LC/MS/MS analysis. Conditions: in vivo.
The nature of data set [14]: in vivo. Conditions: cynomolgus monkey, po, 3 mg/kg.
Description: Cmax in cynomolgus monkey at 3 mg/kg, po measured measured up to 48 hrs by LC/MS/MS analysis
The nature of data set [15]: Half life in cynomolgus monkey at 3 mg/kg, po measured measured up to 72 hrs by LC/MS/MS analysis. Conditions: in vivo.
The subject of data set [16] is Rattus norvegicus. Put plainly: Hemodynamic activity in Sprague-Dawley rat model of acute pressure-volume loop assessed as peripheral vasodilation by measuring free plasma drug concentration at 10 ug/kg/min administered as iv infusion measured at 5 mins. The data set is classed as functional. As to conditions: dose 10 µg/kg/min.
A short description of data set [17]: cells. Conditions: Macaca mulatta, HEK293, 1 h.
The nature of data set [18]: Glutathione reactivity of the compound assessed as GSH-adduct formation. The data set is classed as physicochemical.
A short description of data set [19]: in vivo. Conditions: cynomolgus monkey, po, 3 mg/kg. This is another data set of the same source.
Description: AUC (0 to infinity) in cynomolgus monkey at 3 mg/kg, po measured measured up to 72 hrs by LC/MS/MS analysis
Data set [20] has as its system Rattus norvegicus. Put plainly: Hemodynamic activity in Sprague-Dawley rat model of acute pressure-volume loop assessed as increase in cardiac output at 10 ug/kg/min administered as iv infusion measured at 5 mins relative to control. The data set is classed as functional. As to conditions: dose 10 µg/kg/min.
A short description of data set [21]: Renal clearance in Sprague-Dawley rat at 3 mg/kg, po measured up to 48 hrs by LC/MS/MS analysis. The data set is classed as ADME, organism-based. Conditions: in vivo.
The nature of data set [22]: in vivo. Conditions: Sprague-Dawley, rat, po, 3 mg/kg.
Description: AUC (0 to infinity) in Sprague-Dawley rat at 3 mg/kg, po measured up to 48 hrs by LC/MS/MS analysis
Data set [23] is described as follows: Stability in monkey liver microsomes assessed as parent compound remaining at 30 uM incubated for 45 mins. The data set is classed as ADME, Macaca mulatta, Microsome. Conditions: rhesus monkey, read-out: Stabilty.
Data set [24] can be described thus: in vivo. Conditions: Sprague-Dawley, rat, po, 3 mg/kg. This is another data set of the same source.
Description: Cmax in Sprague-Dawley rat at 3 mg/kg, po measured up to 48 hrs by LC/MS/MS analysis

Converted amounts (≈) assume the structure as drawn.

One may read the EC50 as the concentration needed to bring the measured effect to its halfway point. The term thermodynamic solubility denotes the concentration in solution at equilibrium with solid. What is called Ki is the equilibrium dissociation constant of an inhibitor or competing ligand from its target. The bioavailability is dose-corrected exposure relative to a reference, in per cent. The term half-life denotes how long it takes for the measured level to halve. As a reminder, the Cmax is the peak of the concentration-time curve. Usually AUC(0-inf) stands for the area under the concentration-time curve extrapolated to infinity.

With `COc1cccc(OC)c1-c1c(C2CCCC2)[nH]c(=O)c(-c2nnc(Cc3ccc(Cl)cc3)o2)c1O`, the remaining at 10 min in data set [1] was 66%; in [4] it was 80%. The EC50 at Apelin receptor [2] was 0.51 nM; at Apelin receptor [3], 0.24 nM. The same compound came in with a thermodynamic solubility at 24 h in [5] of 4 µg/mL (≈ 7.87 µM).
In the same order, the values of `COc1cccc(OC)c1-c1c(C2CC2)[nH]c(=O)c(-c2nnc(Cc3ccc(Cl)cc3)o2)c1O` are 51%, 88%, 15 nM, 11 nM and 12 µg/mL (≈ 25 µM).
As for `CCCCc1nc(O)c(-c2nnc(Cc3ccccc3Cl)o2)c(O)c1-c1c(OC)cccc1OC`, the figures for the remaining at 10 min in [1] and in data set [4] were 24% and 82%, respectively. Also, the half-maximal effective concentration (EC50) was found to be 18 nM at Apelin receptor [2] and 8.6 nM on Apelin receptor [3].
As for `CCCCc1[nH]c(=O)c(-c2nnc(Cc3ccccc3)o2)c(O)c1-c1c(OC)cccc1OC`, the remaining at 10 min in data set [1] stood at 53%; in data set [4] it was 87%. In addition, at Apelin receptor [2], the EC50 is 31 nM.
Consider `COCCc1[nH]c(=O)c(-c2nnc(Cc3ccc(Cl)cc3)o2)c(O)c1-c1c(OC)cccc1OC`, for which the values for the remaining at 10 min in data set [1] and in data set [4] were 73% and 86%, respectively. Besides, at Apelin receptor [2], the concentration giving a half-maximal response (EC50) was 1.4 nM. For the same compound, the solubility (thermodynamic) at 24 h in [5] amounted to 73 µg/mL (≈ 147 µM).
For the compound `CCCCc1nc(O)c(-c2nnc(Cc3ccc(Cl)cc3)o2)c(O)c1-c1c(OC)cccc1OC`, the results for the remaining at 10 min in data set [1] and in data set [4] were 22% and 66%, respectively. Besides, the EC50 at Apelin receptor [2] is 1.2 nM; on Apelin receptor [3] it was 0.4 nM. This compound came in with a solubility (thermodynamic) at 24 h in [5] of under 1 µg/mL.
`CCCCc1[nH]c(=O)c(C(=O)OCC)c(O)c1-c1c(OC)cccc1OC`: the remaining at 10 min is 24% in data set [1] and 89% in [4]. Moreover, at Apelin receptor [2], the 50% effective concentration (EC50) amounted to 980 nM.
With `CCCCc1nc(O)c(-c2nnc(Cc3cccc(Cl)c3)o2)c(O)c1-c1c(OC)cccc1OC`, the remaining at 10 min in [1] worked out at 38%; in data set [4], 88%. Besides, the EC50 was found to be 7.3 nM on Apelin receptor [2] and 2.6 nM on Apelin receptor [3].
Consider `CCOCc1nc(O)c(-c2nnc(Cc3ccc(Cl)cc3)o2)c(O)c1-c1c(OC)cccc1OC`, for which the values for the remaining at 10 min in data set [1] and in data set [4] were 74% and 94%, respectively. For the same compound, the 50% effective concentration (EC50) at Apelin receptor [2] came to 0.23 nM; at Apelin receptor [3] it was 0.12 nM. In [5], this compound showed a solubility (thermodynamic) at 24 h of 26 µg/mL (≈ 52.2 µM).
As for `CCCCc1[nH]c(=O)c(-c2nc(Cc3ccccc3)no2)c(O)c1-c1c(OC)cccc1OC`, the values for the remaining at 10 min in [1] and in [4] were 54% and 69%, respectively. Moreover, at Apelin receptor [2], the EC50 amounted to 120 nM.
In the same order, the values of `CCCCc1[nH]c(=O)c(-c2n[nH]c(Cc3ccccc3)n2)c(O)c1-c1c(OC)cccc1OC` are 15%, 36% and 430 nM.
As to `CCOCc1[nH]c(=O)c(-c2nnc(Cc3ccc(Cl)nc3)o2)c(O)c1-c1c(OC)cccc1OC`, the remaining at 10 min in [1] was 76%; in data set [4], 96%. The concentration for a half-maximal effect (EC50) is 0.58 nM on Apelin receptor [2] and 0.17 nM on Apelin receptor [3]. The compound further returned a thermodynamic solubility at 24 h in data set [5] of 110 µg/mL (≈ 220 µM).
With `CCCCc1[nH]c(=O)c(-c2nnc(-c3ccc(Cl)cc3)o2)c(O)c1-c1c(OC)cccc1OC`, the results for the remaining at 10 min in [1] and in [4] were 36% and 99%, respectively. For the same compound, at Apelin receptor [2], the EC50 is 450 nM.
Take `CCOCc1nc(O)c(-c2nnc(Cc3ccc(Cl)cn3)o2)c(O)c1-c1c(OC)cccc1OC` [BMS-986224]: the remaining at 0.75 h, 30 µM in data set [6], in [8] and in [23] was over 95% each time. In addition, on Apelin receptor [7], the affinity, expressed as Ki, was 0.074 nM. Further, the half-maximal effective concentration (EC50) in “cells [9]” is 0.03 nM; on Apelin receptor [2], 0.024 nM; in the data set “cells [17]” it was 0.08 nM; at Apelin receptor [3], 0.023 nM. Moreover, the bioavailability was 56% in data set [10] and 77% in [11]. Besides, in [12], the half-life at 48 h is 2.5 h. Further, the “dose excreted in urine” value in data set [13] is 12%. The results for the peak concentration (Cmax) at 48 h in the data set “in vivo [14]” and in the data set “in vivo [24]” were 1.5 µM and 5.6 µM, respectively. This compound also showed a half-life at 72 h in data set [15] of 3.6 h. The remaining at 10 min in data set [1] was 92%; in [4], 91%. Besides, the “Cp(f)” value in the data set with Rattus norvegicus [16] is 18 nM. The Drug metabolism result in data set [18] is recorded as “Not Active”. Besides, the AUC(0-inf) at 72 h in the data set “in vivo [19]” was determined as 15.3 µM·h. Besides, in the data set on Rattus norvegicus [20], the Activity is recorded as 12%. Besides, in [21], the dose excreted at 48 h was 4%. The same compound registered an area under the curve AUC(0-inf) at 48 h in the data set “in vivo [22]” of 34 µM·h. The compound also registered a thermodynamic solubility at 24 h in [5] of 220 µg/mL (≈ 441 µM).
